According to US20220218679A1, “NOVEL COMPOUNDS AND PHARMACEUTICAL COMPOSITIONS THEREOF FOR THE TREATMENT OF INFLAMMATORY DISORDERS” (Galapagos NV, priority 2019, published 2022):
≈ marks a conversion by molar mass, not a printed value. Read-outs that look alike come from different tables or passages of the source.

Assay: Thermodynamic solubility
Format: physicochemical
Details: for solubility thermodynamic at 24 h: 37 °C, thermodynamic from solid
Excerpt: 4.2. Thermodynamic Solubility
Poor solubility, in particular poor thermodynamic solubility can limit the absorption of compounds from the gastrointestinal tract which in turn may reduce oral bioavailability.
Thermodynamic solubility investigates the solubility of a compound as a saturated solution in equilibrium, by opposition to kinetic solubility, which measures the solubility of a metastable solution where supersaturation may occur and provide over estimation of the actual solubility of the compound. (Klein, 2010)
4.2.2. Thermodynamic Solubility—Protocol 2
In a 8 mL glass vial, 1-2 mg of dry matter of compound were added and stirred with the suitable buffers (Fed State Simulated Intestine Fluid, FeSSIF, or Fasted State Simulated Intestine Fluid, FaSSIF, or Fasted State Simulated Gastric Fluid, FaSSGF, or phosphate buffer pH 7.4) for 24 h at r.t. (for the buffer pH 7.4) or 37° C. (for the GI fluids). The concentration of the mixture was 1 mg/mL.
A volume of 1000 μL were sampled, centrifuged for 10 min at 10 000 rpm and 500 μL of the supernatant were filtered on captiva plate. The samples were diluted in duplicates in DMSO (F100 and F10). Then, a final dilution (F100) in 80/20 H2O/MeCN containing the internal standard (warfarin) was used for LCMS-MS analysis.
A standard curve was made starting from a 40,000 ng/mL stock in DMSO, freshly prepared from dry matter. Then, successive concentrations at 15,000, 11,000, 6,000, 2,500, 1,000, 375, 150 and 75 ng/mL in DMSO were prepared.
Three quality control samples were made: one of 10,000, 1,500 and 200 ng/mL in DMSO, also starting from the DMSO working stock solution at 40,000 ng/mL.
The standard curve and quality controls were diluted a F100 in 80/20 H2O/MeCN (with internal standard) and analyzed on LC/MS-MS (API4000 or API5500).
The samples were analyzed on LC-MS with a flow rate of 0.6 mL/min. The mobile phase A was 0.1% formic acid in water and the mobile phase B was 0.1% formic acid in 90% MeCN and 10% of H2O. The sample was run under positive or negative ion spray on Pursuit C18—5 μm (2.0×20 mm) column, from Agilent.
The ratio analyte/internal standard peaks areas of the standard curve were plotted in a graph and a linear or polynomial of the second order equation was used to calculate the unknown concentrations of the test compound.
Solubility values were reported in μg/mL.

[1] = Fasted State Simulated Intestine Fluid (FaSSIF), fassif, Fasted State Simulated Intestine Fluid, read-out: Tsol FaSSIF
[2] = Fasted State Simulated Gastric Fluid (FaSSGF), fassgf or other biorelevant, Fasted State Simulated Gastric Fluid, read-out: Tsol FaSSGF
[3] = Fed State Simulated Intestine Fluid (FeSSIF), fessif, Fed State Simulated Intestine Fluid, read-out: Tsol FeSSIF
[4] = Fasted State Simulated Gastric Fluid, 24 h, 37° C.

| solubility thermodynamic at 24 h [1] | solubility thermodynamic at 24 h [2] | solubility thermodynamic at 24 h [3] | Tsol FaSSGF [4] | Tsol FaSSIF (Fasted State Simulated Intestine Fluid, 24 h, 37° C.) | Tsol FeSSIF (Fed State Simulated Intestine Fluid, 24 h, 37° C.) | SMILES |
| --- | --- | --- | --- | --- | --- | --- |
| 1.29 µg/mL (≈ 3.11 µM) | – | – | – | – | – | NC(=O)c1cn2nc(C3CCOCC3)cc2cc1NC(=O)c1cccc(C(F)F)n1 [Compound 16, 5-[[6-(difluoromethyl)pyridine-2-carbonyl]amino]-2-tetrahydropyran-4-yl-pyrazolo[1,5-a]pyridine-6-carboxamide] |
| 28.5 µg/mL (≈ 68.9 µM) | 200 µg/mL (≈ 484 µM) | 105 µg/mL (≈ 254 µM) | – | – | – | [2H]C([2H])([2H])Oc1cn2nc(CCC(C)(C)O)cc2cc1NC(=O)c1cccn(C2CC2)c1=O [Compound 24, 1-cyclopropyl-N-[2-(3-hydroxy-3-methylbutyl)-6-(trideuteriomethoxy)pyrazolo[1,5-a]pyridin-5-yl]-2-oxopyridine-3-carboxamide] |
| 0.801 µg/mL (≈ 1.9 µM) | 106 µg/mL (≈ 251 µM) | 27.6 µg/mL (≈ 65.3 µM) | – | – | – | COc1cn2nc(CCC(C)(C)O)cc2cc1NC(=O)c1cccc(C(F)(F)F)n1 [Compound 3, N-[2-(3-hydroxy-3-methylbutyl)-6-methoxypyrazolo[1,5-a]pyridin-5-yl]-6-(trifluoromethyl)pyridine-2-carboxamide] |
| 2.26 µg/mL (≈ 5.03 µM) | 1.96 µg/mL (≈ 4.36 µM) | 14.2 µg/mL (≈ 31.6 µM) | – | – | – | CNC(=O)c1cn2nc(CCC(C)(C)O)cc2cc1NC(=O)c1cccc(C(F)(F)F)n1 [Compound 5, 2-(3-hydroxy-3-methylbutyl)-N-methyl-5-[[6-(trifluoromethyl)pyridine-2-carbonyl]amino]pyrazolo[1,5-a]pyridine-6-carboxamide] |
| < 0.75 µg/mL | < 0.75 µg/mL | – | – | – | – | CNC(=O)c1cn2nc(C3CCOCC3)cc2cc1NC(=O)c1cccc(C(F)F)n1 [Compound 15, 5-[[6-(difluoromethyl)pyridine-2-carbonyl]amino]-N-methyl-2-tetrahydropyran-4-yl-pyrazolo[1,5-a]pyridine-6-carboxamide] |
| 1.77 µg/mL (≈ 4.17 µM) | 8.45 µg/mL (≈ 19.9 µM) | – | – | – | – | COc1c(NC(=O)c2cccn(C3CC3)c2=O)cc2cc(CCC(C)(C)O)nn2c1C [Compound 13, 1-cyclopropyl-N-[2-(3-hydroxy-3-methyl-butyl)-6-methoxy-7-methyl-pyrazolo[1,5-a]pyridin-5-yl]-2-oxo-pyridine-3-carboxamide] |
| 12.5 µg/mL (≈ 29 µM) | 8.26 µg/mL (≈ 19.1 µM) | 70.6 µg/mL (≈ 164 µM) | – | – | – | CNC(=O)c1cn2nc(CCC(C)(C)O)cc2cc1NC(=O)c1cccc(C(F)F)n1 [Compound 19, 5-[[6-(difluoromethyl)pyridine-2-carbonyl]amino]-2-(3-hydroxy-3-methyl-butyl)-N-methyl-pyrazolo[1,5-a]pyridine-6-carboxamide] |
| 3.09 µg/mL (≈ 7.4 µM) | 1.62 µg/mL (≈ 3.88 µM) | – | – | – | – | CC(C)(O)CCc1cc2cc(NC(=O)c3cccc(C(F)F)n3)c(C(N)=O)cn2n1 [Compound 20, 5-[[6-(difluoromethyl)pyridine-2-carbonyl]amino]-2-(3-hydroxy-3-methyl-butyl)pyrazolo[1,5-a]pyridine-6-carboxamide] |
| 24.6 µg/mL (≈ 58 µM) | 75.7 µg/mL (≈ 178 µM) | 81 µg/mL (≈ 191 µM) | – | – | – | CCOc1cn2nc(CCC(C)(C)O)cc2cc1NC(=O)c1cccn(C2CC2)c1=O [Compound 17, 1-cyclopropyl-N-[6-ethoxy-2-(3-hydroxy-3-methyl-butyl)pyrazolo[1,5-a]pyridin-5-yl]-2-oxo-pyridine-3-carboxamide] |
| 14 µg/mL (≈ 32.7 µM) | 50.6 µg/mL (≈ 118 µM) | 75.9 µg/mL (≈ 177 µM) | – | – | – | COc1cn2nc(CC(F)C(C)(C)O)cc2cc1NC(=O)c1cccn(C2CC2)c1=O (stereo not shown) [Compound 22, 1-cyclopropyl-N-[2-(2-fluoro-3-hydroxy-3-methyl-butyl)-6-methoxy-pyrazolo[1,5-a]pyridin-5-yl]-2-oxo-pyridine-3-carboxamide] |
| 10.2 µg/mL (≈ 26.5 µM) | – | – | – | – | – | COc1cn2nc(CCC(C)(C)O)cc2cc1NC(=O)c1cccn(C)c1=O [Compound 2, N-[2-(3-hydroxy-3-methylbutyl)-6-methoxypyrazolo[1,5-a]pyridin-5-yl]-1-methyl-2-oxopyridine-3-carboxamide] |
| 20.2 µg/mL (≈ 47.1 µM) | – | 59.6 µg/mL (≈ 139 µM) | 389 µg/mL | – | – | COc1cn2nc(CC(F)C(C)(C)O)cc2cc1NC(=O)c1cccn(C2CC2)c1=O (single isomer, unassigned; enantiomer a) [Compound 25, 1-cyclopropyl-N-[2-(2-fluoro-3-hydroxy-3-methyl-butyl)-6-methoxy-pyrazolo[1,5-a]pyridin-5-yl]-2-oxo-pyridine-3-carboxamide Enantiomer A] |
| 16 µg/mL (≈ 38.4 µM) | 104 µg/mL (≈ 250 µM) | 93 µg/mL (≈ 223 µM) | – | – | – | [2H]C([2H])([2H])C(O)(CCc1cc2cc(NC(=O)c3cccn(C4CC4)c3=O)c(OC)cn2n1)C([2H])([2H])[2H] [Compound 23, 1-cyclopropyl-N-[6-methoxy-2-[4,4,4-trideuterio-3-hydroxy-3-(trideuteriomethyl)butyl]pyrazolo[1,5-a]pyridin-5-yl]-2-oxo-pyridine-3-carboxamide] |
| 20.6 µg/mL (≈ 51.7 µM) | 68.9 µg/mL (≈ 173 µM) | 84.1 µg/mL (≈ 211 µM) | – | – | – | CCOc1cn2nc(CCC(C)(C)O)cc2cc1NC(=O)c1cccn(C)c1=O [Compound 18, N-[6-ethoxy-2-(3-hydroxy-3-methyl-butyl)pyrazolo[1,5-a]pyridin-5-yl]-1-methyl-2-oxo-pyridine-3-carboxamide] |
| 16.4 µg/mL (≈ 38.6 µM) | – | – | – | – | – | COc1cn2nc(CCC(C)(C)O)cc2cc1NC(=O)c1cccn(C2CCC2)c1=O [Compound 21, 1-cyclobutyl-N-[2-(3-hydroxy-3-methyl-butyl)-6-methoxy-pyrazolo[1,5-a]pyridin-5-yl]-2-oxo-pyridine-3-carboxamide] |
| 0.75 µg/mL (≈ 1.72 µM) | < 0.75 µg/mL | 6.01 µg/mL (≈ 13.8 µM) | – | – | – | CC(C)(O)CCc1cc2cc(NC(=O)c3cccc(C(F)(F)F)n3)c(C(N)=O)cn2n1 [Compound 4, 2-(3-hydroxy-3-methylbutyl)-5-[[6-(trifluoromethyl)pyridine-2-carbonyl]amino]pyrazolo[1,5-a]pyridine-6-carboxamide] |
| < 0.75 µg/mL | < 0.75 µg/mL | < 0.75 µg/mL | – | – | – | CNC(=O)c1cn2nc(C3CCCS(=O)(=O)C3)cc2cc1NC(=O)c1cccc(C(F)(F)F)n1 (stereo not shown) [Compound 8, 2-(1,1-dioxothian-3-yl)-N-methyl-5-[[6-(trifluoromethyl)pyridine-2-carbonyl]amino]pyrazolo[1,5-a]pyridine-6-carboxamide] |
| – | – | – | 818 µg/mL | 34.5 µg/mL | 52.7 µg/mL | COc1cn2nc(CC(F)C(C)(C)O)cc2cc1NC(=O)c1cccn(C2CC2)c1=O (single isomer, unassigned; enantiomer b) [Compound 26, 1-cyclopropyl-N-[2-(2-fluoro-3-hydroxy-3-methyl-butyl)-6-methoxy-pyrazolo[1,5-a]pyridin-5-yl]-2-oxo-pyridine-3-carboxamide Enantiomer B] |
| 183 µg/mL (≈ 397 µM) | > 1000 µg/mL | – | – | – | – | CNC(=O)c1cn2nc(C3CCN(C)CC3)cc2cc1NC(=O)c1cccc(C(F)(F)F)n1 [Compound 12, N-methyl-2-(1-methyl-4-piperidyl)-5-[[6-(trifluoromethyl)pyridine-2-carbonyl]amino]pyrazolo[1,5-a]pyridine-6-carboxamide] |
| 3.96 µg/mL (≈ 9.12 µM) | 3.82 µg/mL (≈ 8.79 µM) | – | – | – | – | CCOc1cn2nc(CCC(C)(C)O)cc2cc1NC(=O)c1cccn(C(F)F)c1=O [Compound 9, 1-(difluoromethyl)-N-[6-ethoxy-2-(3-hydroxy-3-methyl-butyl)pyrazolo[1,5-a]pyridin-5-yl]-2-oxo-pyridine-3-carboxamide] |
| 28 µg/mL (≈ 66.6 µM) | > 1000 µg/mL | 93.9 µg/mL (≈ 223 µM) | – | – | – | COc1cn2nc(CCC(C)(C)O)cc2cc1NC(=O)c1cccn(C(F)F)c1=O [Compound 7, 1-(difluoromethyl)-N-[2-(3-hydroxy-3-methyl-butyl)-6-methoxy-pyrazolo[1,5-a]pyridin-5-yl]-2-oxo-pyridine-3-carboxamide] |
